Assay results from patent US10821115B2, “Compounds that inhibit Mcl-1 protein” (priority 2017, dated 2020).
Where two headings read alike, the source gives them in different places.

Tests used:
[1] = target: recombinant human Mcl-1 (residues 171-327) / Bim interaction (Homo sapiens (Human), UniProt Q07820); experiment: biochemical; assay type: binding; conditions: read-out: Mcl-1 HTRF IC50
[2] = system: human multiple myeloma cell line, OPM-2; experiment: Cell viability assay (OPM-2 10 FBS), CellTiter-Glo; assay type: cell-based
Procedure, shortened: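 Cells were seeded at 3000 cells/well in RPMI 1640 with 10% FBS and exposed to serially diluted compounds for 16 h at 37 °C, 5% CO2.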

[3] = TR-FRET, Mcl-1(171-327) / biotin-Bim (51-76)
[4] = Homo sapiens, OPM-2, 16 h, read-out: OPM-2 10% FBS IC50 IP, OPM-2 cells, 10% FBS, 16 h, CellTiter-Glo
[5] = 0.1 nM Mcl-1(171-327), 0.05 nM biotin-Bim (51-76)
[6] = Homo sapiens, OPM-2, 16 h, read-out: OPM-2 10% FBS IC50 IP, OPM-2 cells, 10% FBS, 16 h incubation

Chain of recombinant human Mcl-1 (residues 171-327) / Bim interaction (Q07820 171-327): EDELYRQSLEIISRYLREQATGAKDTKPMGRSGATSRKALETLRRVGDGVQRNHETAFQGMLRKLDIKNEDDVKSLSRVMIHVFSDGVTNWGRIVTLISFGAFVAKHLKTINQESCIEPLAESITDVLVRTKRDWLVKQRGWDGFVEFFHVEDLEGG

Row | Structure (SMILES) | IC50 [1, 3] [nM] | IC50 [2, 4] [nM] | IC50 [1, 5] [nM] | IC50 [2, 6] [nM] | IC50 ([2]; read-out: OPM-2 10% FBS IC50 IP, OPM-2 cells, 10% FBS, 16 h, CellTiter-Glo) [nM]
1 | CO[C@@]1(CC2=NCC(=O)O2)/C=C/C[C@H](C)[C@@H](C)S(=O)(=O)NC(=O)c2ccc3c(c2)N(C[C@@H]2CC[C@H]21)C[C@@]1(CCCc2cc(Cl)ccc21)CO3 [Example 100549, (1S,3′R,6′R,7′S,8′E,11′S,12′R)-6-chloro-7′-methoxy-11′,12′-dimethyl-7′-((5-oxo-4,5-dihydro-1,3-oxazol-2-yl)methyl)-3,4-dihydro-2H,15′H-spiro[naphthalene-1,22′-[20]oxa[13]thia[1,14]diazatetracyclo [14.7.2.0~3,6~.0~19,24~]pentacosa[8,16,18,24]tetraen]-15′-one 13′,13′-dioxide] | 2.57 | 545 | – | – | –
2 | CCO[C@@]1(CN2CCN3CCCC[C@@H]3C2)/C=C/CC[C@@H](CC)S(=O)(=O)NC(=O)c2ccc3c(c2)N(C[C@@H]2CC[C@H]21)C[C@@]1(CCCc2cc(Cl)ccc21)CO3 [Example 43, (1S,3′R,6′R,7′S,8′E,12′R)-6-chloro-7′-ethoxy-12′-ethyl-7′-((9aR)-octahydro-2H-pyrido[1,2-a]pyrazin-2-ylmethyl)-3,4-dihydro-2H,15′H-spiro[naphthalene-1,22′-[20]oxa[13]thia[1,14]diazatetracyclo [14.7.2.0~3,6~.0~19,24~]pentacosa[8,16,18,24]tetraen]-15′-one 13′,13′-dioxide] | – | – | 1.64 | 888 | –
3 | C[C@@H]1[C@@H](C)CCC[C@](C)([C@H]2OC[C@@H](N(C)C)CO2)[C@@H]2CC[C@H]2CN2C[C@@]3(CCCc4cc(Cl)ccc43)COc3ccc(cc32)C(=O)NS1(=O)=O [Example 100328, (1S,3′R,6′R,7′S,11′S,12′R)-6-chloro-7′-(cis-5-(dimethylamino)-1,3-dioxan-2-yl)-7′,11′,12′-trimethyl-3,4-dihydro-2H,15′H-spiro[naphthalene-1,22′-[20]oxa[13]thia[1,14]diazatetracyclo [14.7.2.0~3,6~.0~19,24~]pentacosa[16,18,24]trien]-15′-one 13′,13′-dioxide] | 0.261 | 180 | – | – | –
4 | CC(C)CO[C@]1(CN2CCN(C3COC3)CC2)/C=C/C[C@H](C)[C@@H](C)S(=O)(=O)NC(=O)c2ccc3c(c2)N(C[C@@H]2CC[C@H]21)C[C@@]1(CCCc2cc(Cl)ccc21)CO3 [Example 355] | – | – | 0.172 | 272 | –
5 | C[C@@H]1[C@@H](C)C/C=C/[C@@](O)(C#CCN2CCCCC2)[C@@H]2CC[C@H]2CN2C[C@@]3(CCCc4cc(Cl)ccc43)COc3ccc(cc32)C(=O)NS1(=O)=O [Example 100421, (1S,3′R,6′R,7′S,8′E,11′S,12′R)-6-chloro-7′-hydroxy-11′,12′-dimethyl-7′-(3-(1-piperidinyl)-1-propyn-1-yl)-3,4-dihydro-2H,15′H-spiro[naphthalene-1,22′-[20]oxa[13]thia[1,14]diazatetracyclo [14.7.2.0~3,6~.0~19,24~]pentacosa[8,16,18,24]tetraen]-15′-one 13′,13′-dioxide] | 3.93 | – | – | – | 4930
6 | CO[C@@]1(CN2CCN(Cc3ncccn3)CC2)/C=C/C[C@H](C)[C@@H](C)S(=O)(=O)NC(=O)c2ccc3c(c2)N(C[C@@H]2CC[C@H]21)C[C@@]1(CCCc2cc(Cl)ccc21)CO3 [Example 338, (1S,3′R,6′R,7′S,8′E,11′S,12′R)-6-chloro-7′-methoxy-11′,12′-dimethyl-7′-((4-(2-pyrimidinylmethyl)-1-piperazinyl)methyl)-3,4-dihydro-2H,15′H-spiro[naphthalene-1,22′-[20]oxa[13]thia[1,14]diazatetracyclo [14.7.2.0~3,6~.0~19,24~]pentacosa[8,16,18,24]tetraen]-15′-one 13′,13′-dioxide] | – | – | 0.1 | 57 | –
